Measurements from PMC5962653 (Frontiers in Microbiology, 2018).
≈ marks a conversion by molar mass, not a printed value. Positions of bridges follow the written chain, without caps; N, C: chain ends. Non-standard residues stand in square brackets, D forms with d. Residues, ends and D or L forms follow the SMILES beside them. *: point of attachment. X1 = CC[C@H](C)CCCCC(=O)*; Dab = NCC[C@H](N)C(=O)O

Legend:
Type in all cases: cell-based, Klebsiella pneumoniae
[1] = system: K. pneumoniae Kp07, VIM-1 producer; test: MIC by broth microdilution (agar dilution for fosfomycin); conditions: for MIC: broth microdilution
Text: (§1) Four genetically unrelated clinical isolates of CP-Kp were studied: Kp07, a VIM-1 ST 1603 clone producer ([Miro et al., 2013]); Kp21, which co-produced VIM-1 and the acquired AmpC type beta-lactamase DHA-1 ST 11 clone ([Miro et al., 2013]); Kp28, co-producing OXA-48 ST11 clone and the extended spectrum beta-lactamase (ESBL) CTX-M-15 ([Oteo et al., 2015]); and Kp29, co-producing KPC-3 ST512 clone with the broad spectrum beta-lactamases TEM-1 and SHV-11 ([Lopez-Cerero et al., 2014]), thereinafter VIM-1, VIM-1/DHA-1, OXA-48 plus CTX-M-15, and KPC-3 producers, respectively. Identification of these isolates was confirmed by a Microflex LT-MALDI Biotyper mass spectrometer (Bruker Daltonics GmbH, Bremen, Germany). The presence of carbapenemase genes, and genes coding for other beta-lactamases was confirmed by PCR and sequencing as described previously. The absence of genetic relation among the isolates was confirmed by PFGE analysis of chromosomal restriction fragments obtained after XbaI cleavage following the criteria of [Tenover et al. (1995)]. […] The antibiotic susceptibility profiles are included in the Supplementary Information.
(§2) MICs of antibiotics were determined by broth microdilution as recommended by the [Clinical and Laboratory Standards Institute [CLSI] (2012)], using Mueller Hinton broth II (MHB) (Becton Dickinson & Co., Sparks, MD, United States) and agar dilution method for fosfomycin. MIC results were interpreted according to the [European Committee on Antimicrobial Susceptibility Testing [EUCAST] (2016)]^1 breakpoints. Studies were performed in triplicate.

[2] = system: K. pneumoniae Kp21, VIM-1/DHA-1 producer; test: as above; conditions: for MIC: broth microdilution
Text: as §1, §2

[3] = system: K. pneumoniae Kp28, OXA-48 plus CTX-M-15 producer; test: as above; conditions: for MIC: broth microdilution
Text: as §1, §2

[4] = system: K. pneumoniae Kp29, KPC-3 producer; test: as above; conditions: for MIC: broth microdilution
Text: as §1, §2

[5] = system: K. pneumoniae KPC-3 producer; conditions: colistin 2 mg/L (EUCAST breakpoint), rifampin 2 mg/L, alone or combined; inoculum 1 × 10^6 cfu/mL, 37°C, samples 0-24 h; three experiments
Description: (§3) (2016)]. […] Tubes were incubated at 37°C, with shaking, and samples were taken at 0, 1, 3, 6, and 24 h, serially diluted and plated using a spiral platter (Eddy Jet, IUL S.A., Barcelona, Spain). Bacterial colonies were counted using an automatic counter (Flash & Go, IUL S.A., Barcelona, Spain) ([Pournaras et al., 2011]; [Souli et al., 2011]). Experiments were performed three times on separate occasions. […] Bactericidal activities of single antibiotics or combination were defined as a decrease ≥ 3 log10 cfu/mL from the starting inoculum ([Souli et al., 2009]). Studies were performed in triplicate.
(§4) The RIF concentration used for all strains was 2 mg/L. RIF, filled circles; CST, filled squares; combination of both antimicrobials, filled triangles.

[6] = system: K. pneumoniae OXA-48 plus CTX-M-15 producer; conditions: at 24 h; colistin 0.5 mg/L
Description: as §3, §4

[7] = system: K. pneumoniae VIM-1 producer
Description: as §3, §4

[8] = system: K. pneumoniae VIM-1/DHA-1 producer; conditions: colistin 2 mg/L (EUCAST breakpoint), rifampin 2 mg/L, alone or combined; inoculum 1 × 10^6 cfu/mL, 37°C, samples 0-24 h; three experiments
Description: as §3, §4

[9] = system: K. pneumoniae OXA-48 plus CTX-M-15 producer (colistin-susceptible); test: In vitro selection of colistin-resistant mutants (time-kill curves); conditions: exposure at the MIC (0.5 mg/L) during 24 h in time-kill curves; sub-cultured twice antimicrobial free; increased from 0.5 mg/L
Description: (§5) MICs determinations of colistin and rifampin were carried out in triplicate.

[10] = system: K. pneumoniae VIM-1 producer (colistin-susceptible); test: as above; conditions: exposure at the MIC (0.5 mg/L) during 24 h in time-kill curves; sub-cultured twice antimicrobial free; increased from 0.5 mg/L
Description: as §5

[11] = Table 1, Mueller Hinton broth II, CLSI, triplicate

For `CC[C@H](C)CCCCC(=O)N[C@@H](CCN)C(=O)N[C@H](C(=O)N[C@@H](CCN)C(=O)N[C@H]1CCNC(=O)[C@H]([C@@H](C)O)NC(=O)[C@H](CCN)NC(=O)[C@H](CCN)NC(=O)[C@H](CC(C)C)NC(=O)[C@@H](CC(C)C)NC(=O)[C@H](CCN)NC1=O)[C@@H](C)O` [Colistin, colistin] (X1-[Dab]T[Dab][Dab][Dab][dL]L[Dab][Dab]T; lactam 4-C (inferred); N-terminus assumed), the MIC [1, 11] was 0.5 [^∗] mg/L, the “SIR, classification according to EUCAST definitions” value (shortened to “SIR, classification according”) ([1]; supplement table, strain KPc07, EUCAST 2016 breakpoints, fosfomycin by agar dilution) was “S” and the MIC ([1]; supplement table, strain KPc07) was 0.5 mg/L (≈ 0.428 µM). The MIC [2, 11] was 64 [^∗∗] mg/L, the “SIR, classification according” value ([2]; supplement table, strain KPc21, EUCAST 2016 breakpoints, fosfomycin by agar dilution) was “R” and the MIC ([2]; supplement table, strain KPc21) was greater than 32 mg/L. The MIC [3, 11] was 0.5 [^∗] mg/L, the “SIR, classification according” value ([3]; supplement table, strain KPc28, EUCAST 2016 breakpoints, fosfomycin by agar dilution) was “S” and the MIC ([3]; supplement table, strain KPc28) was 0.5 mg/L (≈ 0.428 µM). For the same compound, the MIC [4, 11] was 32 [^∗∗] mg/L, the “SIR, classification according” value ([4]; supplement table, strain KPc29, EUCAST 2016 breakpoints, fosfomycin by agar dilution) was “R” and the MIC ([4]; supplement table, strain KPc29) was greater than 32 mg/L. The “Bactericidal activity in time-kill curves (decrease ≥ 3 log10 cfu/mL from the starting inoculum)” value [5] was “did not display any bactericidal activity”, the “Regrowth in time-kill curves” value [6] was “important regrowth at 24 h” and the “Regrowth in time-kill curves” value ([7]; at 24 h, colistin 0.5 mg/L) was “important regrowth at 24 h”. For the same compound, the “Bactericidal activity in time-kill curves (decrease ≥ 3 log10 cfu/mL from the starting inoculum)” value ([7]; colistin 0.5 mg/L (MIC), rifampin 2 mg/L, alone or combined, inoculum 1 × 10^6 cfu/mL, 37°C, samples 0-24 h, three experiments) was “bactericidal at 3 h”, the “Bactericidal activity in time-kill curves (decrease ≥ 3 log10 cfu/mL from the starting inoculum)” value [8] was “did not display any bactericidal activity” and the “Colistin MIC of colonies recovered after exposure to colistin” value [9] was greater than 8 µg/mL. For the same compound, the “Colistin MIC of colonies recovered after exposure to colistin” value [10] was greater than 8 µg/mL.
